In one data set the target is BCL-xL (Homo sapiens (Human), UniProt Q07817). The data set is described as follows: BCL-xL TR-FRET Assay (primary PPI inhibition). The data set is classed as binding. The following applies: 60 min incubation, read-out: BCLxL IC50. In outline:
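TR-FRET competition of His-tagged BCL-xL (10.5 ng) binding to dye-labeled peptide ligand, with anti-His Tb donor; compound added from 200× stock, 0.5% DMSO final. After 60 min incubation, read at 340 nm excitation, 620/665 nm emission, 60 µs delay, 500 µs integration.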
On the technique in general: Time-resolved FRET reads energy transfer from a long-lived donor to a nearby acceptor.

Another data set concerns RS4-11 cells. In words: Cell viability assay (CellTiter-Glo), RS4-11. Conditions: 3 days of incubation. The data set is classed as cell-based. The essentials:
(§1)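 4000 cells/well in DMEM (HEK293, adhered overnight) or RPMI (RS4-11, MOLT-4) with 10% FBS; compounds added at 0.2% DMSO final. After 3 days, viability read by CellTiter-Glo luminescence.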
On the technique in general: Cellular ATP, detected with luciferase, serves as a proxy for viable cell number.

The test system of data set [1] is caspase-3 and -7 activities in RS4-11 cells. In words: Caspase-3/7 activation (Caspase-Glo 3/7) in RS4-11 cells. The data set is classed as cell-based. Conditions: 3.5 h, read-out: Cas-3/7 EC50. The essentials:
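RS4-11 cells exposed to graded compound concentrations for 3.5 h at 37 °C, 5% CO2. Caspase-3/7 activity then read as luminescence after 30 min at rt with a DEVD-based luminogenic substrate reagent.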

The subject of the next data set is HEK293 cells. In words: Cell viability assay (CellTiter-Glo), HEK293. The data set is classed as cell-based. The following applies: 3 days of incubation. The essentials:
as §1

The target in another data set is BCL-2 (Homo sapiens (Human), UniProt P10415). The data set is described as follows: BCL-2 TR-FRET Assay (primary PPI inhibition). In kind it is binding. Conditions: 60 min incubation, read-out: BCL2 IC50. The essentials:
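His-tagged BCL-2 (3 ng) with anti-His Tb donor, dye-labeled acceptor and BCL-2 peptide ligand; compound added at 200× stock, final DMSO 0.5%. 60 min incubation, then TR-FRET read at 340 nm excitation, 620/665 nm emission, 60 µs delay, 500 µs integration.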

For another data set, the system named is MOLT-4 cells. In words: Cell viability assay (CellTiter-Glo), MOLT-4. In kind it is cell-based. Conditions: 3 days of incubation. In outline:
as §1

Another data set concerns the target BCL-2 [G101V] (Homo sapiens (Human), UniProt P10415, G101V). The data set is described as follows: BCL-2 [G101V] TR-FRET Assay (primary PPI inhibition). The data set is classed as binding. Conditions: 60 min incubation, read-out: BCL2[G101V] IC50. Here is the method:
Example C. BCL-2 [G101V]TR-FRET Assay
The following assay concentrations and times were used: 0.22 ng/μl of BCL-2 (SinoBiological, #10195-H08E1), 5 μL of 1:100 anti-His Tb-labeled donor, 5 μL of 1:100 Dye-labeled acceptor, 5 μL of 1:40 BCL-2 Peptide Ligand (BPS Bioscience, #50223), and 2 μL of 200× test compound, with 60 min incubation time (final concentration of DMSO 0.5%). The results of the assay were read using a plate reader with the following parameters: TR FRET, 340ex/620 and 665em; 60 usec Delay; and 500 usec integration.
Instrumentation: CLARIOstar Plus (BMG LABTECH); Biomek FX for liquid handling (Beckman Coulter).

Data set [2] in a line: Cell viability assay (CellTiter-Glo), HEK293. In kind it is cell-based. Conditions: human, HEK293 cells, 3 days of incubation. The essentials: as §1

Drawing on patent US20250115577A1, “BCL-2 Inhibitors” (Eil Therapeutics, Inc., priority 2021, published 2025), this text covers IC50, CC50 and EC50 for nine molecules.

SMILES strings stand for the structures. Like-named read-outs stand apart in the source and are kept apart here.

BCL-xL, sequence (Q07817 whole entry): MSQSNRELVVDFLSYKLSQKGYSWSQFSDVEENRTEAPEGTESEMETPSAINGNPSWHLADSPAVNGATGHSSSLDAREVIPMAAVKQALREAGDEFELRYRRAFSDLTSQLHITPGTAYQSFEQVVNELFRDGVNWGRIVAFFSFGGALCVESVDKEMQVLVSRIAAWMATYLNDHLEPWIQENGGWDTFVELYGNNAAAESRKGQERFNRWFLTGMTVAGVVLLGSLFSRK

Regarding `COc1cccc(CN(C(=O)c2cc(-c3cc(Cl)c(F)cc3C(=O)N3Cc4ccccc4C[C@H]3CN3CCOCC3)n(C)c2C)c2ccc(C#N)cc2)c1C` [Compound 73, 5-[5-chloro-4-fluoro-2-[(3S)-3-(morpholinomethyl)-3,4-dihydro-1H-isoquinoline-2-carbonyl]phenyl]-N-(4-cyanophenyl)-N-[(3-methoxy-2-methyl-phenyl)methyl]-1,2-dimethyl-pyrrole-3-carboxamide], the IC50 (in general, the concentration needed to halve the response being measured) at BCL-xL is 2000 to 5000 nM; at BCL-2 it was more than 50 nM. Moreover, the CC50 (commonly the concentration giving 50% cytotoxicity) in the data set on RS4-11 cells is more than 200 nM; with HEK293 cells, 10000 to 25000 nM; with MOLT-4 cells it was more than 10000 nM. The EC50 in data set [1] was more than 500 nM.
`COc1cccc(CN(C(=O)c2cc(-c3cc(Cl)c(F)cc3C(=O)N3Cc4ccccc4C[C@H]3CN3CCOCC3)n(C)c2C)c2ccc(C#N)cc2)c1C` [Compound 29, 5-[5-chloro-4-fluoro-2-[(3S)-3-(morpholinomethyl)-3,4-dihydro-1H-isoquinoline-2-carbonyl]phenyl]-N-(4-cyanophenyl)-N-[(3-methoxy-2-methyl-phenyl)methyl]-1,2-dimethyl-pyrrole-3-carboxamide]: the CC50 in the data set on RS4-11 cells (Homo sapiens, RS4-11, 72 h) was 100 to 200 nM; with HEK293 cells it was more than 25000 nM; with MOLT-4 cells (Homo sapiens, 72 h), more than 10000 nM. Besides, in data set [1] (Homo sapiens), the EC50 was more than 500 nM. Further, on BCL-2, the concentration for half-maximal inhibition (IC50) was 10 to 50 nM.
Turning to `COc1cccc(CN(C(=O)c2cc(-c3cc(Cl)ccc3C(=O)N3Cc4ccccc4C[C@H]3CN3CCOCC3)n3c2CCCC3)c2ccc(O)cc2)c1C` [Compound 4, 3-[5-chloro-2-[(3S)-3-(morpholinomethyl)-3,4-dihydro-1H-isoquinoline-2-carbonyl]phenyl]-N-(4-hydroxyphenyl)-N-[(3-methoxy-2-methyl-phenyl)methyl]-5,6,7,8-tetrahydroindolizine-1-carboxamide], the IC50 is more than 5000 nM at BCL-xL, 100 to 1000 nM at BCL-2 [G101V] and not above 5 nM at BCL-2. The CC50 in the data set with RS4-11 cells (Homo sapiens, RS4-11, 72 h) was not above 100 nM; in the data set with MOLT-4 cells (Homo sapiens, 72 h), not above 5000 nM. Further, the EC50 in data set [1] (Homo sapiens) was not above 200 nM. For the same molecule, in data set [2], the CC50 at 3 days lay in the range of 10000 to 25000 nM.
For the molecule `COc1cccc(CN(C(=O)c2cc(-c3ccc(OC(F)F)cc3C(=O)N3Cc4ccccc4C[C@H]3CN3CCOCC3)n(C)c2C)c2ccc(O)cc2)c1C` [Compound 31, 5-[4-(difluoromethoxy)-2-[(3S)-3-(morpholinomethyl)-3,4-dihydro-1H-isoquinoline-2-carbonyl]phenyl]-N-(4-hydroxyphenyl)-N-[(3-methoxy-2-methyl-phenyl)methyl]-1,2-dimethyl-pyrrole-3-carboxamide], the IC50 at BCL-xL is 2000 to 5000 nM; on BCL-2 [G101V], more than 1000 nM; at BCL-2, 5 to 10 nM. The 50% cytotoxic concentration (CC50) is more than 200 nM with RS4-11 cells (Homo sapiens, RS4-11, 72 h) and not above 5000 nM with MOLT-4 cells (Homo sapiens, 72 h). Moreover, the EC50 in data set [1] (Homo sapiens) is more than 500 nM. Further, the CC50 at 3 days in data set [2] was more than 25000 nM.
For the molecule `COc1cccc(CN(C(=O)c2cc(-c3cc(Cl)c(OC(F)F)cc3C(=O)N3Cc4ccccc4C[C@H]3CN3CCOCC3)n(C)c2C)c2ccc(O)cc2)c1C` [Compound 36, 5-[5-chloro-4-(difluoromethoxy)-2-[(3S)-3-(morpholinomethyl)-3,4-dihydro-1H-isoquinoline-2-carbonyl]phenyl]-N-(4-hydroxyphenyl)-N-[(3-methoxy-2-methyl-phenyl)methyl]-1,2-dimethyl-pyrrole-3-carboxamide], the IC50 at BCL-xL fell in the range of 2000 to 5000 nM; on BCL-2 [G101V], 100 to 1000 nM; at BCL-2, 5 to 10 nM. Further, the CC50 is more than 200 nM in the data set on RS4-11 cells (Homo sapiens, RS4-11, 72 h) and 5000 to 10000 nM with MOLT-4 cells (Homo sapiens, 72 h). For the same molecule, in data set [1] (Homo sapiens), the EC50 was more than 500 nM. In addition, the half-maximal cytotoxic concentration (CC50) at 3 days in data set [2] is more than 25000 nM.
As to `COc1cccc(CN(C(=O)c2cc(-c3cc(Cl)c(C#N)cc3C(=O)N3Cc4ccccc4C[C@H]3CN3CCOCC3)n(C)c2C)c2ccc(O)cc2)c1C` [Compound 9, 5-[5-chloro-4-cyano-2-[(3S)-3-(morpholinomethyl)-3,4-dihydro-1H-isoquinoline-2-carbonyl]phenyl]-N-(4-hydroxyphenyl)-N-[(3-methoxy-2-methyl-phenyl)methyl]-1,2-dimethyl-pyrrole-3-carboxamide], the IC50 at BCL-xL is 2000 to 5000 nM; on BCL-2 [G101V], 100 to 1000 nM; at BCL-2, not above 5 nM. Further, the CC50 in the data set on RS4-11 cells (Homo sapiens, RS4-11, 72 h) is more than 200 nM; in the data set with MOLT-4 cells (Homo sapiens, 72 h), not above 5000 nM. Further, the EC50 in data set [1] (Homo sapiens) was more than 500 nM. In data set [2], this molecule registered a CC50 at 3 days of 10000 to 25000 nM.
Take `COc1cccc(CN(C(=O)c2cc(-c3cc(Cl)ccc3C(=O)N3Cc4ccccc4C[C@H]3CN3CCOCC3)n(C)c2C)c2ccc(O)cc2)c1C` [Compound 7, 5-[5-chloro-2-[(3S)-3-(morpholinomethyl)-3,4-dihydro-1H-isoquinoline-2-carbonyl]phenyl]-N-(4-hydroxyphenyl)-N-[(3-methoxy-2-methyl-phenyl)methyl]-1,2-dimethyl-pyrrole-3-carboxamide]: the IC50 on BCL-xL is 2000 to 5000 nM; on BCL-2 [G101V], not above 100 nM; on BCL-2 it was not above 5 nM. Moreover, the CC50 with RS4-11 cells (Homo sapiens, RS4-11, 72 h) was not above 100 nM; in the data set on MOLT-4 cells (Homo sapiens, 72 h), 5000 to 10000 nM. Also, the EC50 in data set [1] (Homo sapiens) was not above 200 nM. The CC50 at 3 days in data set [2] lay within 10000 to 25000 nM.
`COc1cccc(CN(C(=O)c2cc(-c3cc(F)ccc3C(=O)N3Cc4ccccc4C[C@H]3CN3CCOCC3)n(C)c2C)c2ccc(O)cc2)c1C` [Compound 52, 5-[5-fluoro-2-[(3S)-3-(morpholinomethyl)-3,4-dihydro-1H-isoquinoline-2-carbonyl]phenyl]-N-(4-hydroxyphenyl)-N-[(3-methoxy-2-methyl-phenyl)methyl]-1,2-dimethyl-pyrrole-3-carboxamide]: the IC50 on BCL-xL is 2000 to 5000 nM; on BCL-2 [G101V], not above 100 nM; at BCL-2, not above 5 nM. For the same molecule, the half-maximal cytotoxic concentration (CC50) with RS4-11 cells (Homo sapiens, RS4-11, 72 h) was not above 100 nM; in the data set with MOLT-4 cells (Homo sapiens, 72 h), not above 5000 nM. The EC50 in data set [1] (Homo sapiens) fell in the range of 200 to 500 nM. In data set [2], this molecule registered a CC50 at 3 days of more than 25000 nM.
Take `COc1cccc(CN(C(=O)c2cc(-c3cc(Cl)ccc3C(=O)N3Cc4ccccc4C[C@H]3CN3CCOCC3)n(C)c2C)c2ccc3[nH]ncc3c2)c1C` [Compound 70, 5-[5-chloro-2-[(3S)-3-(morpholinomethyl)-3,4-dihydro-1H-isoquinoline-2-carbonyl]phenyl]-N-(1H-indazol-5-yl)-N-[(3-methoxy-2-methyl-phenyl)methyl]-1,2-dimethyl-pyrrole-3-carboxamide]: the IC50 is more than 5000 nM at BCL-xL, more than 1000 nM on BCL-2 [G101V] and 5 to 10 nM on BCL-2. Besides, the CC50 in the data set with RS4-11 cells (Homo sapiens, RS4-11, 72 h) is more than 200 nM; in the data set on MOLT-4 cells (Homo sapiens, 72 h) it was not above 5000 nM. For the same molecule, in data set [1] (Homo sapiens), the EC50 was more than 500 nM. The CC50 at 3 days in data set [2] is more than 25000 nM.
